Reference: PubChem BioAssay (NCI)
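Grown in 96-well plates, cells were treated for 48 hours with each compound at five concentrations. Insufficient inhibition: endpoint recorded as highest concentration tested. Abbreviation: GI50, concentration required for 50% inhibition of growth. TGI: total growth inhibition.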

Legend:
Assay in all cases: NCI anticancer screen, dose series, 48 h
[1] = system: NCI-H522 lung
[2] = system: U251 CNS
[3] = system: CAKI-1 renal
[4] = system: MDA-MB-435
[5] = system: HCT-116 colon
[6] = system: NCI-H23 lung
[7] = system: M14 melanoma
[8] = system: NCI-H226 lung
[9] = system: COLO 205 colon
[10] = system: OVCAR-4 ovarian
[11] = system: CCRF-CEM leukemia
[12] = system: MOLT-4 leukemia
[13] = system: DU-145 prostate
[14] = system: LOX IMVI melanoma
[15] = system: MCF7 breast
[16] = system: UO-31 renal
[17] = system: UACC-62 melanoma
[18] = system: T-47D breast
[19] = system: SW-620 colon
[20] = system: ACHN renal
[21] = system: HOP-92 NSCLC
[22] = system: K-562 leukemia
[23] = system: MALME-3M melanoma
[24] = system: NCI/ADR-RES ovarian
[25] = system: SR leukemia
[26] = system: UACC-257 melanoma
[27] = system: HT29 colon
[28] = system: MDA-N
[29] = system: HL-60(TB) leukemia
[30] = system: RPMI-8226 leukemia
[31] = system: MDA-MB-231 breast
[32] = system: 786-0 renal
[33] = system: HCC-2998 colon
[34] = system: NCI-H460 lung
[35] = system: SK-MEL-5 melanoma
[36] = system: SK-MEL-28 melanoma
[37] = system: SF-539 CNS
[38] = system: SNB-19 CNS
[39] = system: SN12C renal
[40] = system: SK-MEL-2 melanoma
[41] = system: A549 NSCLC
[42] = system: SK-OV-3 ovarian
[43] = system: OVCAR-5 ovarian
[44] = system: SF-268 CNS
[45] = system: PC-3 prostate
[46] = system: TK-10 renal
[47] = system: RXF 393 renal
[48] = system: HCT-15 colon
[49] = system: A498 renal
[50] = system: KM12 colon
[51] = system: OVCAR-8 ovarian
[52] = system: SF-295 CNS

CC1(C#N)N(C(=O)c2ccccc2)c2ccccc2N1C(=O)c1ccccc1
GI50 [1]: 49.4 µM
GI50 [2]: 15.3 µM
GI50 [3]: 65 µM
GI50 [4]: 62.9 µM
GI50 [5]: 35.4 µM
GI50 [6]: 64.4 µM
GI50 [7]: 29.3 µM
TGI [7]: 98.4 µM
GI50 [8]: 91.8 µM
GI50 [9]: 46.5 µM
GI50 [10]: 57.7 µM
GI50 [11]: 23.9 µM
TGI [11]: 77.9 µM
GI50 [12]: 22.9 µM
TGI [12]: 71.9 µM
GI50 [13]: 81.8 µM
GI50 [14]: 33.6 µM
GI50 [15]: 37.2 µM
GI50 [16]: 45.1 µM
GI50 [17]: 79.7 µM
GI50 [18]: 38.7 µM
GI50 [19]: 75.9 µM
GI50 [20]: 72.9 µM
GI50 [21]: 52 µM
GI50 [22]: 33 µM
GI50 [23]: 44.6 µM
GI50 [24]: 79.7 µM
GI50 [25]: 45.4 µM
GI50 [26]: 86.4 µM
GI50 [27]: 66.4 µM
GI50 [28]: 79.4 µM
GI50 [29]: 69.9 µM
GI50 [30]: 39.8 µM
GI50 [31]: 65.3 µM

N#CN=C(N)c1sc2nc3c(c(-c4ccc(Br)cc4)c2c1N)CCCC3
TGI [2]: > 100 µM
TGI [3]: 42.4 µM
TGI [32]: 50.2 µM
TGI [33]: 60.3 µM
TGI [4]: 13.6 µM
TGI [5]: 33.1 µM
TGI [6]: 66.9 µM
TGI [7]: > 100 µM
TGI [34]: > 100 µM
TGI [35]: 38.3 µM
TGI [8]: 42 µM
TGI [9]: 44.8 µM
TGI [36]: > 100 µM
TGI [10]: 26.9 µM
TGI [11]: > 100 µM
TGI [12]: > 100 µM
TGI [13]: 71.9 µM
TGI [37]: > 100 µM
TGI [14]: 41.2 µM
TGI [38]: > 100 µM
TGI [39]: 58.1 µM
TGI [40]: 32.8 µM
TGI [15]: > 100 µM
TGI [16]: 57.6 µM
TGI [17]: 51.3 µM
TGI [41]: > 100 µM
TGI [42]: > 100 µM
TGI [19]: > 100 µM
TGI [20]: 57 µM
TGI [21]: 77.5 µM
TGI [22]: > 100 µM
TGI [43]: > 100 µM
TGI [44]: > 100 µM
TGI [45]: 52.7 µM
TGI [46]: > 100 µM
TGI [47]: 60 µM
TGI [48]: 44.7 µM
TGI [24]: 80.1 µM
TGI [25]: 50.3 µM
TGI [26]: > 100 µM
TGI [27]: 48.8 µM
TGI [49]: 43.1 µM
TGI [28]: 34.4 µM
TGI [30]: 56.5 µM
TGI [50]: 59.7 µM
TGI [51]: 86.8 µM
TGI [31]: 70.8 µM
TGI [52]: 58.6 µM
